Laboratory results from EPA's ToxValDB 9.5 (doi:10.2903/j.efsa.2006.55r).
Values after ≈ are worked out from the molar mass of the structure shown.

Legend:
[1] = test system: Anas platyrhynchos; details: for LC50: short-term, oral, feed, mortality
[2] = test system: Apis mellifera; details: acute, duration: 48 hours, mortality
[3] = test system: Colinus virginianus; details: acute, oral, mortality
[4] = test system: Lepomis macrochirus; details: acute; duration: 96 hours; mortality
[5] = test system: Plant; details: not reported; no effects
[6] = test system: Rattus norvegicus; details: for NOAEL: reproduction developmental
[7] = test system: Tagia sp.; details: for LC50: acute, mortality
[8] = test system: Aphidius rhopalosiphi; test: LR50; higher = less toxic; details: not reported; mortality
[9] = test system: Orius insidiosus; test: LR50; higher = less toxic; details: not reported; mortality
[10] = test system: Daphnia magna; details: chronic/long-term; duration: 21 days; reproduction

Row | Structure (SMILES) | NOEC ([1]; reproductive) [mg/kg] | LC50 [1] | LD50 ([2]; dermal) [µg/piece] | LD50 ([2]; oral, unspecified) [µg/piece] | LC50 ([3]; diet) [mg/kg] | LD50 [3] [mg/kg-day] | LC50 [4] [mg/L] | LEL [5] [g/ha] | LOAEL ([6]; acute, oral, gavage, neurology) [mg/kg-day] | LD50 ([6]; acute, oral, mortality) [mg/kg-day] | NOAEL ([6]; body weight) [mg/kg-day] | NOAEL ([6]; oral, diet, mortality) [mg/kg-day] | NOAEL ([6]; reproduction) [mg/kg-day] | LC50 [7] [mg/kg] | NOEC ([7]; chronic/long-term) [mg/kg] | LR50 [8] [g/ha] | LR50 [9] [g/ha] | NOEC [10] [mg/L] | LC50 ([7]; duration: 14 days) [mg/kg]
1 | CSC(C)=NOC(=O)N(C)SN(C)C(=O)ON=C(C)SC [Thiodicarb] | 500 | > 5620 mg/kg | 3.1 | 0.153 | > 5620 | 2020 | 1.4 (≈ 3.95 µM) | 950 | < 5 | 50 | 1 | 7 | 84 | 38.5 | 2 | 0.4 | 25.4 |  | 
2 | CNC(=O)ON=C(C)SC [Methomyl] |  | 658 mg/kg-day |  |  |  | 24.2 | 0.62 (≈ 3.82 µM) |  |  |  |  |  |  |  |  |  |  | 0.0016 | 19
